# Measurements as given in US12559749B2, “Methods of rescuing stop codons via genetic reassignment with ACE-tRNA” (UNIVERSITY OF IOWA RESEARCH FOUNDATION, priority 2017, dated 2026).
# B1: TS-38 52-62 G-C: t-stem variant of Trpchr17.trna39, SEQ ID NO: 3 (nucleic acid)
# chain: GGCCUCGUGGCGCAACGGUAGCGCGUCUGACUUCAGAUCAGAAGGUUCCGGGUUCAAAUCCCGGCGGGGUCA
# modifications: expressed or natural sequence
# B2: TS-10 52-62 G-C: t-stem mutant of Trpchr17.tRNA 39, FIG. 12B, SEQ ID NO: 589 (nucleic acid)
# chain: GACCUCGUGGCGCAACGGUUAGCGCGUCUGACUUCAGAUCAGAAGGCUCCGGGUUCGAAUCCCGGCGGGGUCA
# modifications: expressed or natural sequence
# Columns and labels:
# [1] = Phase 3 clinical trials; cited from earlier work
# [2] = tested on: native stop codons (TAA, TAG, TGA), 3′UTR ribosome density; assay: Ribosome footprint profiling of transcriptome-wide 3′UTRs, HEK293 cells; type: cell-based, human
# Source text: The question was raised whether ACE-tRNAs that show efficacious suppression of premature stop codons may also induce global readthrough of native stop codons. To address this potential “off target” suppression, a transcriptome-wide quantitative profile of actively engaged ribosomes on all cellular transcripts was obtained by generating libraries of ribosome footprints from HEK293 cells expressing exogenous ACE-tRNAs or a control mock plasmid (puc57GG). Streptomycin was removed from the growth media to prevent readthrough artifacts. For comparison, the ribosome footprint library was also generated from cells in the presence or absence of G418 (150 μM, 48 h). […] Only transcripts with a minimum threshold of 5 RPKM in the coding sequence and 0.5 RPKM in the 3′UTR in two replicate libraries were included for the quantitation comparison (254 transcripts in G418 and 495-748 transcripts in ACE-tRNAs). […] ACE-tRNAs examined here had no detectable change of 3′UTR ribosome density with the exception of ACE-tRNA Gln-UAA and Arg-UGA which induced approximately a 2-fold increase in 3′UTR ribosome density for the cognate stop codon complimentary to the ACE-tRNA anticodon. Understanding the biological significance of 2-fold readthrough of protein stops will require further study, but this effect is substantially lower compared to the 100- to 1000-fold suppression of PTC for the same ACE-tRNA.
# Multiple in-frame stop codons are frequently found at the end of genes 37-39 and may cause a minor difference in overall 3′UTR ribosome density for ACE-tRNA and G418 treatment. Ribosome occupancy was examined at each nucleotide in the 3′UTR within a 60 nt region downstream of the stop codons. […] Reads were normalized per total million-mapped reads, compared against control cells, and reported as a log 2-fold change as in panel A. More than 5,200 transcripts were mapped to at least 1 footprint in the region of interest. […] Taken together, the ribosome profiling data argue that efficiency of native stop codon suppression by ACE-tRNAs is generally low, and markedly less than the level of PTC suppression.
# Ribosome Footprint Profiling Library preparation. HEK293 cells transiently transfected with ACE-tRNAs and control plasmid (puc57GG) were grown in standard grown media in the absence of Pen-Strep for 48 h. Libraries were prepared as described^55, with a few modifications. Briefly, cells were rapidly cooled by addition of ice-cold PBS, lysed in lysis buffer (20 mM Tris-HCl/pH7.4, 150 mM NaCl, 5 mM MgCl2, 1 mM DTT, 1% (v/v) Triton X-100, and 25 U ml^−1 Turbo DNase I) for 10 min on ice, and triturated with ten times through a 26-G needle. […]
# NLuc-UGA PTC reporter = assay: NanoLuc nonsense reporter screen of ACE-tRNA, UGA (TGA) PTC, HEK293 cells; type: cell-based, human; settings: t-stem variants, luciferase 24 hours post-transfection, HEK cells
# Source text: Several different nonsense mutations cause CF, thus underlying roughly 10% of all CF disease. FIG. 7. These cases are concentrated into […] specific genetic lesions: E60X, R75X, G542X, R553X, Q890X, Y1092X, R1158X, R1162X and W1282X. We propose that it should be feasible, with the right approach, to screen existing human tRNA sequences for modification and tolerance to anti-codon editing. To this end, roughly 144 ACE-tRNAs were candidates to test for those that could be used to promote the repair of the disease causative nonsense codon and the expression of the full-length protein. Specifically, using the scheme described in FIG. 11, tRNA libraries were generated to identify novel tRNA sequences that encode for ACE tRNA with the ability to repair the top CF causative nonsense mutations. Specifically, 10 ng of annealed oligos encoding the ACE-tRNAs were combined with 50 ng of NanoLuc reporter plasmid, 1 ul 10× CutSmart Buffer (NEB), 1 ul T4 ligase (NEB), 10 mM ATP and 1 ul BbsI (NEB) and cycled in a thermocycler as described in FIG. 11. 1 ul of the reaction was transformed into competent E. coli and the transformants were plated on ampicillin agar plates. […]
# Screening studies were first performed to identify the best ACE-tRNA Candidates from tryptophan and glycine. […] Plates were read on a SpectraMax i3 (Molecular Devices). […]
molecule,measurement,setting,value
O=C(O)c1cccc(-c2noc(-c3ccccc3F)n2)c1 [Ataluren],efficacy in patient populations,[1],unexpectedly low efficacy
"CN[C@@H]1[C@@H](O)[C@@H](O[C@@H]2[C@@H](O)[C@H](O[C@H]3O[C@H]([C@@H](C)O)[C@@H](O)[C@H](O)[C@H]3N)[C@@H](N)C[C@H]2N)OC[C@]1(C)O [G418, reference compound]",effect on transcriptome-wide 3′UTR ribosome density,"[2]; G418 150 μM, 48 h, ACE-tRNAs transiently transfected",no observable effect on transcriptome-wide 3′UTR ribosome density
same,ribosome occupancy in the early region of 3′UTR downstream of stop codons,"[2]; per nucleotide, -35 to +65 nt",no observable change of ribosome occupancy
B1,increase of suppression activity relative to Trpchr17.trna39,NLuc-UGA PTC reporter,roughly 250%
B2,increase of suppression activity relative to Trpchr17.trna39,NLuc-UGA PTC reporter,~250%
